Data reported in US20060063803A1, “4-Amino substituted-2-substituted-1,2,3,4-tetrahydroquinoline compounds” (Pfizer Inc, priority 2004, published 2006).

What was measured:
[1] = In vivo tests - dogs, oral suspension, serum levels by LC/MS/MS; conditions: dog, 3 male beagle dogs, fasted, oral gavage of OPC suspension, 3 mgA/kg
Experimental: Samples were dosed orally as suspensions to 3 male beagle dogs in the fasted state. Oral powders for constitution (OPC) were prepared by adding 150 mg of crystalline Compound A to 50 mL water containing 0.5 wt % Methylcellulose A, or 600 mg of the dispersion of Example 1 to 50 mL water containing 0.5 wt % Methylcellulose A and 0.1 wt % Tween 80. Dogs were fasted overnight, and allowed ad libidum access to water. On the morning of the study, approximately 10 mL of OPC solution (3 mgA/kg) was administered via oral gavage with 10 mL normal saline flush.
Whole-blood samples (3-mL red-top Vacutainer tubes without serum separators) were taken from the jugular vein before dosing and at 0.25, 0.5, 1, 2, 4, 6, 8, and 24 hours after dosing. Serum was harvested into cryovials after centrifugation at 3000 rpm for 10 minutes. The samples were frozen and then kept at −20° C. until they were analyzed by liquid chromatography with tandem mass spectrometry (LC/MS/MS).

[2] = In vitro microcentrifuge dissolution test; type: physicochemical; conditions: PBS pH 6.5, 290 mOsm/kg, 7.3 mM sodium taurocholic acid, 1.4 mM 1-palmitoyl-2-oleyl-sn-glycero-3-phosphocholine, 37° C.; 200 μgA/mL if all dissolved
Experimental: An in vitro dissolution test was used to determine the dissolution performance of the solid amorphous dispersion of Example 89. For this test, a sufficient amount of material was added to a microcentrifuge test tube so that the concentration of Compound A would have been 200 μgA/mL, if all of the compound had dissolved. The test was run in duplicate. The tubes were placed in a 37° C. temperature-controlled chamber, and 1.8 mL PBS at pH 6.5 and 290 mOsm/kg, containing 7.3 mM sodium taurocholic acid and 1.4 mM of 1-palmitoyl-2-oleyl-sn-glycero-3-phosphocholine, was added to each respective tube. The samples were quickly mixed using a vortex mixer for about 60 seconds. The samples were centrifuged at 13,000 G at 37° C. for 1 minute. The resulting supernatant solution was then sampled and diluted 1:5 (by volume) with methanol and analyzed by high-performance liquid chromatography (HPLC). HPLC analysis was performed using a Zorbax RX-C18 column. The mobile phase consisted of 30/70 0.15% trifluoroacetic acid/acetonitrile, with a flow rate of 1.0 mL/min. UV absorbance was measured at 254 nm. The contents of each tube were mixed on the vortex mixer and allowed to stand undisturbed at 37° C. until the next sample was taken. Samples were collected at 4, 10, 20, 40, 90, and 1200 minutes. […]

For `CC[C@@H]1C[C@H](N(Cc2cc(C(F)(F)F)cc(C(F)(F)F)c2)c2nnn(C)n2)c2cc(C(F)(F)F)ccc2N1C(=O)[C@H]1CC[C@H](CC(N)=O)CC1` [Crystalline Compound A, Trans-(2R,4S)-2-(4-{4-[(3,5-Bis-trifluoromethyl-benzyl)-(2-methyl-2H-tetrazol-5-yl)-amino]-2-ethyl-6-trifluoromethyl-3,4-dihydro-2H-quinoline-1-carbonyl}-cyclohexyl)-acetamide], the AUC(0-inf) [1] was 2690 ng·h/mL, the Cmax [1] was 186 ng/mL and the “AUC90 (area under the concentration-versus-time curve during the initial ninety minutes)” value [2] was 800 min * μgA/mL. The “MDC90 (maximum dissolved concentration of Compound A during the initial ninety minutes)” value [2] was 13 μgA/mL.
